In patent US6465660B1, “Isoindoloindolone compounds” (Les Laboratoires Servier, priority 2001, dated 2002):

Target: T1, MT3 sites (Mesocricetus auratus, UniProt A0ABM2YAB8)
T1 construct: carried out on hamster brain membranes using 2-[^125I] iodomelatonin as radioligand; from tissue; host or cells: hamster brain membranes
T1 sequence (A0ABM2YAB8 1-231): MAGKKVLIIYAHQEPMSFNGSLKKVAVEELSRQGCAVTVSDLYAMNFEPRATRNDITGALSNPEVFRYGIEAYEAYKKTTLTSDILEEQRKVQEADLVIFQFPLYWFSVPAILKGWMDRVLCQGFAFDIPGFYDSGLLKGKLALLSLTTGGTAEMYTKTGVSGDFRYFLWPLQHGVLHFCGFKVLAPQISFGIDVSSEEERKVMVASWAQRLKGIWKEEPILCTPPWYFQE
Assay: Study of binding to melatonin MT3 binding sites
Details: hamster brain membranes, 2-[125I] iodomelatonin radioligand, 30 minutes, 4° C.
Protocol: Binding to MT3 sites is characterised by remarkably rapid association and dissociation kinetics and by tissue localisation (brain).
The experiments of binding to MT3 sites are carried out on hamster brain membranes using 2-[^125I] iodomelatonin as radioligand in accordance with the protocol described by P. Paul et al. (J. Pharmacol. Exp. Ther. 1999 290, 334). The membranes are incubated for 30 minutes with 2-[^125I] iodomelatonin at a temperature of 4° C. and at different concentrations of the compounds to be tested. Following incubation, the membranes are rapidly filtered and then washed with cold buffer using a filtration system. The radioactivity retained is measured using a scintillation counter.

IC50: 45 nM
SMILES: COc1ccc2[nH]cc(CCNC(C)=O)c2c1 [melatonin, N-acetyl-5-methoxytryptamine]
